These results are taken from patent EP4717267A1, “SYNERGISTIC COMBINATION FOR TREATING CANCER” (FUNDACION UNIVERSITARIA SAN ANTONIO (UCAM), priority 2023, dated 2024).

In test [1] the test system is MCF-7 cells. In words: MTT colorimetric cytotoxicity assay on MCF-7 cells, single drugs and two-drug combinations, with combination index (CompuSyn). Conditions: for type of drug interaction with Doxorubicin (combination index): MCF-7; for effect of the analog in combination with Doxorubicin on the anticancer activity of Doxorubicin: MCF-7, combination with Doxorubicin; for IC50: Homo sapiens, MCF7, read-out: IC50 concentration, which inhibits MCF-7 cell proliferation by 50% compared to control cells, single drug, MCF-7, 72 hours, MTT. The class given is cell-based, Human. As for the experimental part:
(§1) IC50 values were calculated using GraphPad Prism software.
(§2) This equation defines "Synergism" (CI < 1), "Additive effect" (CI = 1) and "Antagonism" (CI > 1).
In general terms: Formazan colour is commonly taken as a measure of viable cells.

Test [2] relates to A549 cells. In words: MTT colorimetric cytotoxicity assay on A549 cells, single drugs and two-drug combinations, with combination index (CompuSyn). Format: cell-based. Conditions: Homo sapiens, A549, 72 hours, read-out: IC50 value for cancer cell survival.
Method: The cancer cell lines (MCF-7, A549 and U-87MG) were cultured as monolayers in Dulbecco's modified Eagle's medium supplemented with 10% (v/v) fetal bovine serum and 1% (v/v) penicillin/streptomycin mixture (10,000 U/mL penicillin and 10 mg/mL streptomycin) in a 100% humidified atmosphere of 5% CO2 and 95% air at 37 °C. […] Cell cultures were kept in the exponential growth phase by regularly passaging cells three times a week with 0.25% trypsin/EDTA mixture.
The cytotoxic activity of the test compounds against cancer cell lines was tested using the standard MTT (3-(4,5-dimethylthiazol-2-yl)-2,5-diphenyltetrazolium bromide) colorimetric assay. […] Briefly, exponentially proliferating cells were seeded into each well of a 96-well microplate (about 5×10^3 cells/well). After 24 hours, test compounds at various concentrations were added to the respective wells, and the cells were incubated for another 72 hours. After incubating the cells with the test compounds, the medium was removed and MTT solution with a final concentration of 0.5 mg/mL was added. After 4 hours of incubation, the MTT solution was replaced with DMSO to dissolve the resulting violet formazan crystals in metabolically viable cells. Plates were gently shaken at room temperature until the formazan was completely dissolved and read at 540 nm using a microplate reader. […] The experiment was repeated at least three times under the same conditions. […] IC50 values were calculated using GraphPad Prism software. […] The test drugs were administered to the cells at the same time.
The combination index (CI) method - a dimensionless quantity used to determine and quantify the type of drug interaction - for binary combinations was calculated using CompuSyn software based on the equation: (CI)x = ((D)1)/((Dx)1) + ((D)2)/((Dx)2) = ((D)1)/((Dm)1 ([(fa)/((1−fa))])^((1)/(m1))) + ((D)2)/((Dm)2 ([(fa)/((1−fa))])^((1)/(m2))) [formula] […]
All data are expressed as mean±standard deviation (SD) and presented as a percentage of control (untreated cells) taken as 100%, n=3 (or more). […]
Test [3] has as its system U-87MG cells. In words: MTT colorimetric cytotoxicity assay on U-87MG cells, single drugs and two-drug combinations, with combination index (CompuSyn). Conditions: for IC50: Homo sapiens, single drug, U-87MG, 72 hours, MTT, read-out: IC50 value (cell survival). Format: cell-based, Human. The method, then:
Glimepiride and its analogs were first prepared as a stock solution in DMSO, and then the drugs were dissolved fresh in culture medium enriched with Tween 80 (final concentration 0.05%).
Human cancer cells (MCF-7, A549 and U-87MG) and normal endothelial cells (HMEC-1) were obtained from American Type Cell Culture (Rockville, MD). The cancer cell lines (MCF-7, A549 and U-87MG) were cultured as monolayers in Dulbecco's modified Eagle's medium supplemented with 10% (v/v) fetal bovine serum and 1% (v/v) penicillin/streptomycin mixture (10,000 U/mL penicillin and 10 mg/mL streptomycin) in a 100% humidified atmosphere of 5% CO2 and 95% air at 37 °C. Normal endothelial cells (HMEC-1) were cultured in MCDB 131 medium supplemented with 10% (v/v) fetal bovine serum, 10 ng/mL EGF, 1 µg/mL hydrocortisone and 1% (v/v) penicillin/streptomycin solution, in a humidified atmosphere of 5% CO2 and 95% air at 37 °C. Cell cultures were kept in the exponential growth phase by regularly passaging cells three times a week with 0.25% trypsin/EDTA mixture.
as §1, §2
All data are expressed as mean±standard deviation (SD) and presented as a percentage of control (untreated cells) taken as 100%, n=3 (or more). Sample size was estimated for Type I and Type II statistical errors of […], respectively. Normality of the data was checked with the Shapiro-Wilk test, and the homogeneity of variance was checked with the Levene or Brown-Forsythe test. The significance of differences between pairs of means was estimated using one-way ANOVA and Tukey's post-hoc test. For each analysis, the post-hoc power of the used tests was checked. Statistical power below 80% was considered a null result, and constructive conclusions were not made. All statistics were calculated using […] (StatSoft, USA) or GraphPad Prism software.

Test [4] relates to MDA-MB-231 breast carcinoma cells. Conditions: Glibenclamide alone; inhibits G1-S phase progression without cell death or differentiation; cited from earlier work.
Where [5] appears, read: Glimepiride analog 100-500 µM in combination with Doxorubicin 0.225, 0.450, 0.900 µM.

For `COc1ccc2c(c1)C(=O)N(CCc1ccc(S(=O)(=O)NC(=O)NC3CCCCC3)cc1)C(=O)C2(C)C` [Gliquidone], the “type of drug interaction with Doxorubicin (combination index)” value (“type … (combination index)” below) in test [1] (100 µM analog in combination with Doxorubicin 0.225, 0.450, 0.900 µM) was “additive effect or slight antagonism”; in test [1] (setting [5]) it was “not every combination of concentrations of Doxorubicin and Gliquidone produce a synergistic effect”; in test [1] (other dose combinations (analog above 100 µM) with Doxorubicin), “synergistic effects”. Moreover, the “effect of the analog in combination with Doxorubicin on the anticancer activity of Doxorubicin” value (“effect of the analog in combination” below) in test [1] is “beneficial effect”.
For the molecule `CCCCNC(=O)NS(=O)(=O)c1ccc(C)cc1` [Tolbutamide, 1-butyl-3-(4-methylphenyl)sulfonylurea], the “effect of the analog in combination” value in test [1] is on record as “beneficial effect”.
As for `Cc1ccc(S(=O)(=O)NC(=O)NN2CCCCCC2)cc1` [Tolazamide, 1-(azepan-1-yl)-3-(4-methylphenyl)sulfonylurea], in test [1] (setting [5]), the “type … (combination index)” value is given as “strong or very strong synergy”. Further, in test [1], the “effect of the analog in combination” value is “beneficial effect”.
The matching figures for `Cc1ccc(S(=O)(=O)NC(=O)NN2CC3CCCC3C2)cc1` (centres unmarked) [Gliclazide, 1-(3,3a,4,5,6,6a-hexahydro-1H-cyclopenta[c]pyrrol-2-yl)-3-(4-methylphenyl)sulfonylurea]: “strong or very strong synergy” and “beneficial effect”.
Regarding `CC(=O)O[C@@]12CO[C@@H]1C[C@H](O)[C@@]1(C)C(=O)[C@H](O)C3=C(C)[C@@H](OC(=O)[C@H](O)[C@@H](NC(=O)OC(C)(C)C)c4ccccc4)C[C@@](O)([C@@H](OC(=O)c4ccccc4)[C@H]21)C3(C)C` [DOCE, [(1S,2S,3R,4S,7R,9S,10S,12R,15S)-4-acetyloxy-1,9,12 trihydroxy-15-[(2R,3S)-2-hydroxy-3-[(2-methylpropan-2-yl)oxycarbonylamino]-3 phenylpropanoyl]oxy-10,14,17,17-tetramethyl-11-oxo-6 oxatetracyclo[11.3.1.03,1 0.04, 7]heptadec-13-en-2-yl] benzoate], the IC50 in test [2] came out at 150 nM; in test [1], 240 nM; in test [3], 80 nM.
Take `CCC1=C(C)CN(C(=O)NCCc2ccc(S(=O)(=O)NC(=O)NC3CCC(C)CC3)cc2)C1=O` (centres unmarked) [Glimepiride, 4-ethyl-3-methyl-N-[2-[4-[(4-methylcyclohexyl)carbamoylsulfamoyl]phenyl]ethyl]-5-oxo-2H-pyrrole-1-carboxamide]: the IC50 was found to be 389000 ± 4490 nM in test [2], 186000 ± 7020 nM in test [1] and 149000 ± 12200 nM in test [3].
For the molecule `Cc1cnc(C(=O)NCCc2ccc(S(=O)(=O)NC(=O)NC3CCCCC3)cc2)cn1` [Glipizide, N-[2-[4-(cyclohexylcarbamoylsulfamoyl)phenyl]ethyl]-5-methylpyrazine-2-carboxamide], in test [1], the “effect of the analog in combination” value is “beneficial effect”.
For the molecule `CCCNC(=O)NS(=O)(=O)c1ccc(Cl)cc1` [Chlorpropamide, 1-(4-chlorophenyl)sulfonyl-3-propylurea], the “type … (combination index)” value in test [1] (setting [5]) is recorded as “strong or very strong synergy”. In addition, the “effect of the analog in combination” value in test [1] was “beneficial effect”.
On to `COc1cccc2c1C(=O)c1c(O)c3c(c(O)c1C2=O)C[C@@](O)(C(=O)CO)C[C@@H]3O[C@H]1C[C@H](N)[C@H](O)[C@H](C)O1` [Doxorubicin, (7S,9S)-7-[(2R,4S,5S,6S)-4-amino-5-hydroxy-6 methyloxan-2-yl]oxy-6,9,11-trihydroxy-9-(2-hydroxyacetyl)-4-methoxy-8,10-dihydro-7H tetracene-5,12-dione], for which, in test [3] (0.52 µM Doxorubicin alone), the U-87MG cell survival is 75.6%.
Turning to `CCCCCOC(=O)Nc1nc(=O)n([C@@H]2O[C@H](C)[C@@H](O)[C@H]2O)cc1F` [CAPE, pentyl N-[1-[(2R,3R,4S,5R)-3,4-dihydroxy-5-methyloxolan-2-yl]-5-fluoro-2-oxopyrimidin-4-yl]carbamate], the IC50 in test [2] was 60 nM; in test [1], 180 nM; in test [3] it was 40 nM.
In the case of `CCCCNC(=O)NS(=O)(=O)c1ccc(N)cc1` [Carbutamide], the “effect of the analog in combination” value in test [1] is on record as “beneficial effect”.
With `COc1ccc(Cl)cc1C(=O)NCCc1ccc(S(=O)(=O)NC(=O)NC2CCCCC2)cc1` [Glibenclamide], the “type … (combination index)” value in test [1] (setting [5]) is reported as “strong or very strong synergy”. Further, in test [1], the “effect of the analog in combination” value is reported as “beneficial effect”. Also, the “effect in MDA-MB-231 cells” value in test [4] is “cytostatic effect”.
